Laboratory results as given in ChEMBL document CHEMBL4828733, “Discovery and In Vivo Anti-inflammatory Activity Evaluation of a Novel Non-peptidyl Non-covalent Cathepsin C Inhibitor” (J Med Chem, 2021).

What was measured:
[1] = Octanol/water partition coefficient, logP of compound at pH 7.4; format: physicochemical
[2] = Acute toxicity in ICR mouse assessed as mortality rate at 1500 mg/kg, po administered as single dose measured after 1 week relative to control; format: organism-based; conditions: in vivo, time 1 weeks, read-out: Activity
[3] = AUC (0 to infinitive) in Sprague-Dawley rat at 10 mg/kg, po measured up to 24 hrs by LC-MS/MS analysis; format: ADME, organism-based; parameters: route oral, dose 10 mg/kg, time <=24; conditions: in vivo
[4] = Cmax in Sprague-Dawley rat at 10 mg/kg, po measured up to 24 hrs by LC-MS/MS analysis; format: ADME, organism-based; parameters: route oral, dose 10 mg/kg, time <=24; conditions: in vivo
[5] = Tmax in Sprague-Dawley rat at 10 mg/kg, po measured up to 24 hrs by LC-MS/MS analysis; format: ADME, organism-based; conditions: in vivo
[6] = MRT in Sprague-Dawley rat at 10 mg/kg, po measured up to 24 hrs by LC-MS/MS analysis; format: ADME, organism-based; conditions: in vivo
[7] = AUC (0 to infinitive) in Sprague-Dawley rat at 1 mg/kg, ip measured up to 24 hrs by LC-MS/MS analysis; format: ADME, organism-based; parameters: route intraperitoneal, dose 1 mg/kg, time <=24; conditions: in vivo
[8] = MRT in Sprague-Dawley rat at 1 mg/kg, ip measured up to 24 hrs by LC-MS/MS analysis; format: ADME, organism-based; conditions: in vivo
[9] = Oral bioavailability in Sprague-Dawley rat at 10 mg/kg measured up to 24 hrs by LC-MS/MS analysis; format: ADME, organism-based; conditions: in vivo
[10] = Cmax in Sprague-Dawley rat at 1 mg/kg, ip measured up to 24 hrs by LC-MS/MS analysis; format: ADME, organism-based; parameters: route intraperitoneal, dose 1 mg/kg, time <=24; conditions: in vivo

| Compound | logD [1] | further results |
| --- | --- | --- |
| NC1CCN(c2ccc(Nc3ncc(Cl)c(Nc4cccc(C(F)(F)F)c4)n3)nc2)CC1 | 0.44 | – |
| FC(F)(F)c1cccc(Nc2nc(Nc3ccc(-c4ccsc4)cn3)ncc2Cl)c1 | 2.03 | – |
| CN1CCN(c2ncc(Nc3ncc(Cl)c(Nc4cccc(C(F)(F)F)c4)n3)cn2)CC1 | 1.89 | – |
| FC(F)(F)Oc1cccc(Nc2nc(Nc3ccccc3)ncc2Cl)c1 | 2.65 | – |
| FC(F)(F)c1cccc(Nc2nc(Nc3ccc(N4CCNCC4)cn3)ncc2Cl)c1 | 1.25 | – |
| FC(F)(F)c1cccc(Nc2nc(Nc3cccnn3)ncc2Cl)c1 | 2.26 | – |
| CN1CCN(c2ccc(Nc3ncc(Cl)c(Nc4cccc(C(F)(F)F)c4)n3)nn2)CC1 | 1.26 | – |
| CN1CCN(c2ccc(Nc3ncc(Cl)c(Nc4cccc(C(F)(F)F)c4)n3)cc2)CC1 | 1.46 | – |
| CN1CCN(c2ccc(Nc3ncc(Cl)c(Nc4cccc(C(F)(F)F)c4)n3)cn2)CC1 | 1.61 | – |
| CN(C)C1CCN(c2ccc(Nc3ncc(Cl)c(Nc4cccc(C(F)(F)F)c4)n3)nc2)CC1 | 2.01 | mortality at 168 h [2]: 70% |
| FC(F)(F)c1cccc(Nc2nc(Nc3cncnc3)ncc2Cl)c1 | 2.01 | – |
| FC(F)(F)c1cccc(Nc2nc(Nc3cccnc3)ncc2Cl)c1 | 1.26 | – |
| FC(F)(F)c1cccc(Nc2nc(Nc3ccccc3)ncc2Cl)c1 | 2.46 | – |
| CN1CCN(c2ccc(Nc3ncc(Cl)c(Nc4cccc(C(F)(F)F)c4)n3)nc2)CC1 | 1.87 | AUC(0-inf) [3]: 158 ng·h/mL; Cmax [4]: 83.5 ng/mL; Tmax [5]: 2 h; MRT [6]: 2.68 h; AUC [7]: 249.2 µg·h/L; MRT [8]: 1.22 h; bioavailability [9]: 16.7%; Cmax [10]: 458 ng/mL |
| CCN1CCN(c2ccc(Nc3ncc(Cl)c(Nc4cccc(C(F)(F)F)c4)n3)nc2)CC1 | 2.18 | – |
| FC(F)(F)c1cccc(Nc2nc(Nc3ccccn3)ncc2Cl)c1 | 1.4 | – |
